{
  "source": "patent US8173387B2",
  "about": "“Method of examining chemical using gene-disrupted strain” (priority 2003, dated 2012)",
  "format_in_all_cases": "cell-based, Saccharomyces cerevisiae",
  "key": {"[1]": {"test_system": "homozygous diploid of gene-disrupted strain DEL022 (YLR226W) transformed with a plasmid p-YBR072W", "assay": "promoter assay (GFP reporter), Example 3", "settings": "DEL022 (DEL0022) homozygous diploid, W303 background", "description": "(§1) In order to prepare a gene-disrupted strain transformation cassette, genes having chemical sensitivity; YPR036W(DEL000), YDL151C(DEL001), YGL026C(DEL003), YHR039C-A(DEL006), YKL080W(DEL007), YLR447C(DEL008), YGR006W(DEL012), YGR105W(DRL013), YJR104C(DEL014), YGL206C(DEL018), YIL036W(DEL019), YKL119C(DEL020), YLR226W(DEL022) and YLR311C(DEL025) in Table 7 were selected, and each gene was replaced with a transformation marker such as kanamycin resistance. As primers for performing PCT amplification, a N-terminal side (ORF(upper)) and a C-terminal side (ORF(lower)) in each ORF were used. A length of a sequence (ORF(upper) and ORF(lower)) of a primer homologues with ORF was 46 or 50 bp.\n(§2) A W303 a mating type (ATCC200903) and a W303α mating type (ATCC201238) in which the same gene was gene disruption-manipulated were mated by a mating procedure (Yeast Gene Experimental Manual: Maruzen Co., Ltd., p 83-92) to prepare homozygous diploids. Separately, mating of a W303a mating type, and a non-gene-disrupted W303α type was performed by the similar procedure to prepare heterozygous diploids.\n(§3) By such the procedure, homozygous diploids of DEL000, DEL001, DEL003, DEL006, DEL007, DEL008, DEL012, DEL013, DEL014, DEL018, DEL019, DEL020, DEL022 and DEL025 in Table 7 were prepared. In addition, heterozygous diploids in which DEL006, DEL014 and DEL 022 were mated with a non-gene-disrupted strain (hereafter, referred to as DEL006 heterozygous diploid, DEL 014 heterozygous diploid, DEL022 heterozygous diploid) and, further, a heterozygous diploid in which DEL000 and DEL014 were mated (hereafter, referred to as DEL000/014 heterozygous diploid) were prepared.\n(§4) Competent cells of W303 ATCC201239 (MATa/MATα leu2-3/leu2-3 leu2-112/leu2-112 trp1-1/trp1-1 ura3-1/ura3-1 his 3-11/his3-11 his3-15/his3-15 ade2-1/ade2-1 can1-100/can1-100) which is a parent strain of gene-disrupted strains, and each of prepared gene-disrupted strains were prepared. The competent cells were transformed using two kind of prepared plasmid for promoter assay, p-YBR072W (in which GFP is connected downstream of a promoter of YBR072W) and p-YPL171C (in which GFP is connected downstream of a promoter of YPL171C).\n(§5) The resulting transformant was grown to the steady state by shaking-culturing on a SD medium (adenine, hystidine, triptophan, leucine) at 25° C. The transformant in the steady state was diluted 500-fold with the same medium, shaking-cultured at 25° C. for 15 hours and, after it was confirmed that an absorbance at 600 nm was 0.2 to 0.5 as a logarithmic growth phase, chemicals having different concentrations were loaded. After loading of chemicals, fluorescence of cells which had been cultured for 4 hours was measured using a flow cytometer (FITC filter, EPICS XL-MCL, Bechmancoulter), and this was adopted as an expression amount of GFP (green fluorescence protein) which is a marker gene. A fluorescence intensity of 10000 cells was measured with a flow cytometer by one measurement and an average of fluorescence intensities of all cells was obtained, and was adopted as a measured value. Similarly, a fluorescence intensity of a cell to which a chemical had not been loaded was obtained, and results are shown as difference in a fluorescence intensity."}, "[2]": {"test_system": "homozygous diploid of gene-disrupted strain DEL007 (YKL080W) transformed with a plasmid p-YBR072W", "assay": "promoter assay (GFP reporter), Example 3", "settings": "EL007 homozygous diploid, W303 background", "description": "as §1, §2, §3, §4, §5"}, "[3]": {"test_system": "homozygous diploid of gene-disrupted strain DEL012 (YGR006W) transformed with a plasmid p-YBR072W", "assay": "promoter assay (GFP reporter), Example 3", "settings": "W303 background", "description": "as §1, §2, §3, §4, §5"}, "[4]": {"test_system": "heterozygous diploid of gene-disrupted strain DEL022 (YLR226W) transformed with a plasmid p-YBR072W", "assay": "promoter assay (GFP reporter), Example 3", "settings": "DEL0022 heterozygous diploid, W303 background", "description": "as §1, §2, §3, §4, §5"}, "[5]": {"test_system": "homozygous diploid of gene-disrupted strain DEL020 (YKL119C) transformed with a plasmid p-YBR072W", "assay": "promoter assay (GFP reporter), Example 3", "settings": "W303 background", "description": "as §1, §2, §3, §4, §5"}, "[6]": {"test_system": "homozygous diploid of gene-disrupted strain DEL006 (YHR039C-A) transformed with a plasmid p-YBR072W", "assay": "promoter assay (GFP reporter), Example 3", "settings": "W303 background", "description": "as §1, §2, §3, §4, §5"}, "[7]": {"test_system": "homozygous diploid of gene-disrupted strain DEL013 (YGR105W) transformed with a plasmid p-YBR072W", "assay": "promoter assay (GFP reporter), Example 3", "settings": "W303 background", "description": "as §1, §2, §3, §4, §5"}, "[8]": {"test_system": "gene-disrupted strain DEL022 (YLR226W) transformed with a plasmid p-YBR072W", "assay": "promoter assay (GFP reporter), Example 2", "settings": "GFP fluorescence 4 hours after loading, parent strain BY4743", "procedure": "(§6) In a gene-disrupted strain, a growing rate becomes small so much, or medium components in which the strain can be grown are different in some cases, depending on a disrupted gene. Then, in the present experiment studying a host cell of a promoter assay method, in view of easy comparison with a control experiment, among gene-disrupted strains obtained as the result of Example 1, a few strains which have sensitivity to many chemicals and are grown by the same procedure as that of a parent strain were selected. Selected gene-disrupted strains are 8 strains of DEL000, DEL002, DEL011, DEL014, DEL016, DEL019, DEL022 and DEL025 in Table 7. Further, as a control, a parent strain, BY4743 was used.\n(§7) A competent cell of each of a parent strain of a gene-disrupted strain and selected gene-disrupted strains was prepared. This competent cell was transformed using two kinds of prepared plasmids for promoter assay, p-YBR072W (in which GFP was connected understream of a promoter of YBR072W) and p-YPL171C (in which GFP was connected downstream of a promoter of YPL171C).\nas §5, with “(histidine,” for “(adenine, hystidine, triptophan,”, “as” for “as difference in”, “intensity ratio.” for “intensity.”"}, "[9]": {"test_system": "gene-disrupted strain DEL025 (YLR311C) transformed with a plasmid p-YBR072W", "assay": "promoter assay (GFP reporter), Example 2", "settings": "DEL025, p-YBR072W, GFP fluorescence 4 hours after loading, parent strain BY4743", "procedure": "as §6, §7\nas §5, with “(histidine,” for “(adenine, hystidine, triptophan,”, “as” for “as difference in”, “intensity ratio.” for “intensity.”"}, "[10]": {"test_system": "gene-disrupted strain DEL000 (YPR036W) transformed with a plasmid p-YBR072W", "assay": "promoter assay (GFP reporter), Example 2", "settings": "GFP fluorescence 4 hours after loading, parent strain BY4743", "procedure": "as §6, §7\nas §5, with “(histidine,” for “(adenine, hystidine, triptophan,”, “as” for “as difference in”, “intensity ratio.” for “intensity.”"}, "[11]": {"test_system": "gene-disrupted strain DEL019 (YIL036W) transformed with a plasmid p-YBR072W", "assay": "promoter assay (GFP reporter), Example 2", "settings": "DEL 019, p-YBR072W, GFP fluorescence 4 hours after loading, parent strain BY4743", "procedure": "as §6, §7\nas §5, with “(histidine,” for “(adenine, hystidine, triptophan,”, “as” for “as difference in”, “intensity ratio.” for “intensity.”"}},
  "data": [
    {"smiles": "CCN(CC)C(=O)SCc1ccc(Cl)cc1", "note": "[benthiocarb]", "values": [
      {"measurement": "concentration at which sensitivity is shown, as fraction of a concentration of a gene-non-disrupted strain", "setting": "[1]", "value": "1/10"},
      {"measurement": "concentration at which sensitivity is shown, as fraction of a concentration of a gene-non-disrupted strain", "setting": "[2]", "value": "1/10"},
      {"measurement": "concentration at which sensitivity is shown, as fraction of a concentration of a gene-non-disrupted strain", "setting": "[3]", "value": "1/3"},
      {"measurement": "concentration at which sensitivity is shown, as fraction of a concentration of a gene-non-disrupted strain", "setting": "[4]", "value": "1/3"},
      {"measurement": "concentration at which sensitivity is shown, as fraction of a concentration of a gene-non-disrupted strain", "setting": "[5]", "value": "1/3"},
      {"measurement": "concentration at which sensitivity is shown, as fraction of a concentration of a gene-non-disrupted strain", "setting": "[6]", "value": "1/10"},
      {"measurement": "concentration at which sensitivity is shown, as fraction of a concentration of a gene-non-disrupted strain", "setting": "[7]", "value": "1/3"},
      {"measurement": "concentration at which the strain responded, as fraction of a concentration of a parent strain", "setting": "[8]", "value": "1/10"},
      {"measurement": "concentration at which the strain responded, as fraction of a concentration of a parent strain", "setting": "[9]", "value": "1/3"},
      {"measurement": "concentration at which the strain responded, as fraction of a concentration of a parent strain", "setting": "[10]", "value": "1/3"},
      {"measurement": "concentration at which the strain responded, as fraction of a concentration of a parent strain", "setting": "[11]", "value": "1/100"}
    ]}
  ]
}
